Laboratory results taken from the supplement of paper PMC8612539.
≈ marks a conversion by molar mass, not a printed value.

Tested on: Pasteurella multocida
Experiment: minimum inhibitory concentration (MIC)
Method: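 Broth microdilution MIC (Sensititre BOPO7F bovine plate, CLSI methods) of 19 antimicrobials against field isolates of P. multocida, M. haemolytica, H. somni (deep nasopharyngeal swabs) and E. coli, Enterococcus spp. (rectal swabs) from weaned dairy heifers. Incubation 16-24 h at 35 C. MIC is the lowest concentration preventing visible growth. Values with <= or > lie at the tested range limits. Trimethoprim-sulfamethoxazole is given as the trimethoprim component of a 1:19 mixture.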

COc1cc(Cc2cnc(N)nc2N)cc(OC)c1OC.Cc1cc(NS(=O)(=O)c2ccc(N)cc2)no1 [trimethoprim-sulfamethoxazole]
Settings | minimum inhibitory concentration [µg/mL]
isolate (source animal id): 10 | ≤ 2
isolate (source animal id): 11 | ≤ 2
isolate (source animal id): 12 | ≤ 2
isolate (source animal id): 19 | ≤ 2
isolate (source animal id): 23 | ≤ 2
isolate (source animal id): 26 | ≤ 2
isolate (source animal id): 30 | ≤ 2
isolate (source animal id): 34 | ≤ 2
isolate (source animal id): 36 | ≤ 2
isolate (source animal id): 37 | ≤ 2
isolate (source animal id): 46 | ≤ 2
isolate (source animal id): 48 | ≤ 2
isolate (source animal id): 49 | ≤ 2
isolate (source animal id): 54 | ≤ 2
isolate (source animal id): 55 | ≤ 2
isolate (source animal id): 58 | ≤ 2
isolate (source animal id): 60 | ≤ 2
isolate (source animal id): 61 | ≤ 2
isolate (source animal id): 63 | ≤ 2
isolate (source animal id): 64 | ≤ 2
isolate (source animal id): 65 | ≤ 2
isolate (source animal id): 66 | ≤ 2
isolate (source animal id): 67 | ≤ 2
isolate (source animal id): 69 | ≤ 2
isolate (source animal id): 73 | ≤ 2
isolate (source animal id): 75 | ≤ 2
isolate (source animal id): 76 | ≤ 2
isolate (source animal id): 77 | ≤ 2
isolate (source animal id): 78 | ≤ 2
isolate (source animal id): 80 | ≤ 2
isolate (source animal id): 82 | ≤ 2
isolate (source animal id): 83 | ≤ 2
isolate (source animal id): 88 | > 2
isolate (source animal id): 92 | ≤ 2
isolate (source animal id): 94 | ≤ 2
isolate (source animal id): 98 | ≤ 2
isolate (source animal id): 104 | ≤ 2
isolate (source animal id): 115 | > 2
isolate (source animal id): 117 | ≤ 2
isolate (source animal id): 118 | ≤ 2
isolate (source animal id): 121 | > 2
isolate (source animal id): 124 | ≤ 2
isolate (source animal id): 125 | ≤ 2
isolate (source animal id): 128 | > 2
isolate (source animal id): 131 | ≤ 2
isolate (source animal id): 135 | > 2
isolate (source animal id): 136 | > 2
isolate (source animal id): 140 | ≤ 2
isolate (source animal id): 144 | ≤ 2
isolate (source animal id): 146 | ≤ 2
isolate (source animal id): 150 | > 2
isolate (source animal id): 151 | > 2
isolate (source animal id): 153 | ≤ 2
isolate (source animal id): 155 | ≤ 2
isolate (source animal id): 157 | ≤ 2
isolate (source animal id): 160 | > 2
isolate (source animal id): 164 | > 2
isolate (source animal id): 165 | > 2
isolate (source animal id): 167 | ≤ 2
isolate (source animal id): 168 | ≤ 2
isolate (source animal id): 169 | ≤ 2
isolate (source animal id): 170 | ≤ 2
isolate (source animal id): 171 | ≤ 2
isolate (source animal id): 172 | ≤ 2
isolate (source animal id): 173 | ≤ 2
isolate (source animal id): 174 | ≤ 2
isolate (source animal id): 175 | ≤ 2
isolate (source animal id): 176 | ≤ 2
isolate (source animal id): 177 | ≤ 2
isolate (source animal id): 178 | ≤ 2
isolate (source animal id): 179 | ≤ 2
isolate (source animal id): 182 | ≤ 2
isolate (source animal id): 192 | ≤ 2
isolate (source animal id): 193 | ≤ 2
isolate (source animal id): 195 | ≤ 2
isolate (source animal id): 196 | ≤ 2
isolate (source animal id): 197 | ≤ 2
isolate (source animal id): 198 | ≤ 2
isolate (source animal id): 199 | ≤ 2
isolate (source animal id): 200 | ≤ 2
isolate (source animal id): 201 | ≤ 2
isolate (source animal id): 203 | ≤ 2
isolate (source animal id): 204 | ≤ 2
isolate (source animal id): 205 | ≤ 2
isolate (source animal id): 206 | ≤ 2
isolate (source animal id): 207 | ≤ 2
isolate (source animal id): 208 | ≤ 2
isolate (source animal id): 209 | ≤ 2
isolate (source animal id): 210 | ≤ 2
isolate (source animal id): 213 | ≤ 2
isolate (source animal id): 216 | ≤ 2
isolate (source animal id): 223 | ≤ 2
isolate (source animal id): 227 | ≤ 2
isolate (source animal id): 229 | ≤ 2
isolate (source animal id): 233 | ≤ 2
isolate (source animal id): 234 | ≤ 2
isolate (source animal id): 237 | ≤ 2
isolate (source animal id): 241 | ≤ 2
isolate (source animal id): 245 | ≤ 2
isolate (source animal id): 247 | ≤ 2
isolate (source animal id): 250 | ≤ 2
isolate (source animal id): 254 | ≤ 2
isolate (source animal id): 255 | ≤ 2
isolate (source animal id): 258 | ≤ 2
isolate (source animal id): 261 | ≤ 2
isolate (source animal id): 262 | ≤ 2
isolate (source animal id): 269 | ≤ 2
isolate (source animal id): 270 | ≤ 2
isolate (source animal id): 274 | ≤ 2
isolate (source animal id): 275 | ≤ 2
isolate (source animal id): 276 | ≤ 2
isolate (source animal id): 277 | ≤ 2
isolate (source animal id): 278 | ≤ 2
isolate (source animal id): 279 | ≤ 2
isolate (source animal id): 280 | > 2
isolate (source animal id): 284 | ≤ 2
isolate (source animal id): 285 | ≤ 2
isolate (source animal id): 287 | ≤ 2
isolate (source animal id): 290 | ≤ 2
isolate (source animal id): 294 | ≤ 2
isolate (source animal id): 295 | ≤ 2
isolate (source animal id): 296 | ≤ 2
isolate (source animal id): 307 | ≤ 2
isolate (source animal id): 310 | ≤ 2
isolate (source animal id): 311 | ≤ 2
isolate (source animal id): 312 | ≤ 2
isolate (source animal id): 313 | ≤ 2
isolate (source animal id): 315 | ≤ 2
isolate (source animal id): 316 | ≤ 2
isolate (source animal id): 318 | ≤ 2
isolate (source animal id): 319 | ≤ 2
isolate (source animal id): 320 | ≤ 2
isolate (source animal id): 321 | ≤ 2
isolate (source animal id): 322 | ≤ 2
isolate (source animal id): 324 | ≤ 2
isolate (source animal id): 325 | ≤ 2
isolate (source animal id): 328 | ≤ 2
isolate (source animal id): 330 | ≤ 2
isolate (source animal id): 331 | ≤ 2
isolate (source animal id): 333 | ≤ 2
isolate (source animal id): 336 | ≤ 2
isolate (source animal id): 337 | ≤ 2
isolate (source animal id): 339 | ≤ 2
isolate (source animal id): 340 | ≤ 2
isolate (source animal id): 341 | ≤ 2

C=C[C@]1(C)C[C@@H](OC(=O)CSCCN(CC)CC)[C@]2(C)[C@H](C)CC[C@]3(CCC(=O)[C@H]32)[C@@H](C)[C@@H]1O [Tiamulin]
Settings | minimum inhibitory concentration [µg/mL]
isolate (source animal id): 10 | 16 (≈ 32.4 µM)
isolate (source animal id): 11 | 16 (≈ 32.4 µM)
isolate (source animal id): 12 | 16 (≈ 32.4 µM)
isolate (source animal id): 19 | 16 (≈ 32.4 µM)
isolate (source animal id): 23 | 16 (≈ 32.4 µM)
isolate (source animal id): 26 | 32 (≈ 64.8 µM)
isolate (source animal id): 98 | 32 (≈ 64.8 µM)
isolate (source animal id): 104 | 32 (≈ 64.8 µM)
isolate (source animal id): 115 | 32 (≈ 64.8 µM)
isolate (source animal id): 117 | 32 (≈ 64.8 µM)
isolate (source animal id): 118 | 32 (≈ 64.8 µM)
isolate (source animal id): 121 | 32 (≈ 64.8 µM)
isolate (source animal id): 124 | 32 (≈ 64.8 µM)
isolate (source animal id): 125 | 32 (≈ 64.8 µM)
isolate (source animal id): 128 | 32 (≈ 64.8 µM)
isolate (source animal id): 131 | 32 (≈ 64.8 µM)
isolate (source animal id): 135 | 16 (≈ 32.4 µM)
isolate (source animal id): 136 | 32 (≈ 64.8 µM)
isolate (source animal id): 140 | 32 (≈ 64.8 µM)
isolate (source animal id): 144 | 32 (≈ 64.8 µM)
isolate (source animal id): 146 | 32 (≈ 64.8 µM)
isolate (source animal id): 150 | 32 (≈ 64.8 µM)
isolate (source animal id): 151 | 32 (≈ 64.8 µM)
isolate (source animal id): 153 | 32 (≈ 64.8 µM)
isolate (source animal id): 155 | 32 (≈ 64.8 µM)
isolate (source animal id): 157 | 16 (≈ 32.4 µM)
isolate (source animal id): 160 | 32 (≈ 64.8 µM)
isolate (source animal id): 164 | 32 (≈ 64.8 µM)
isolate (source animal id): 165 | 32 (≈ 64.8 µM)
isolate (source animal id): 167 | 32 (≈ 64.8 µM)
isolate (source animal id): 168 | 32 (≈ 64.8 µM)
isolate (source animal id): 169 | 16 (≈ 32.4 µM)
isolate (source animal id): 170 | 32 (≈ 64.8 µM)
isolate (source animal id): 171 | 32 (≈ 64.8 µM)
isolate (source animal id): 172 | 32 (≈ 64.8 µM)
isolate (source animal id): 173 | 32 (≈ 64.8 µM)
isolate (source animal id): 174 | 16 (≈ 32.4 µM)
isolate (source animal id): 175 | 32 (≈ 64.8 µM)
isolate (source animal id): 176 | 16 (≈ 32.4 µM)
isolate (source animal id): 177 | 32 (≈ 64.8 µM)
isolate (source animal id): 178 | 32 (≈ 64.8 µM)
isolate (source animal id): 179 | 32 (≈ 64.8 µM)
isolate (source animal id): 182 | 32 (≈ 64.8 µM)
isolate (source animal id): 192 | 32 (≈ 64.8 µM)
isolate (source animal id): 193 | 32 (≈ 64.8 µM)
isolate (source animal id): 195 | 32 (≈ 64.8 µM)
isolate (source animal id): 196 | 32 (≈ 64.8 µM)
isolate (source animal id): 197 | 32 (≈ 64.8 µM)
isolate (source animal id): 198 | 32 (≈ 64.8 µM)
isolate (source animal id): 199 | 32 (≈ 64.8 µM)
isolate (source animal id): 200 | 32 (≈ 64.8 µM)
isolate (source animal id): 201 | 32 (≈ 64.8 µM)
isolate (source animal id): 203 | 16 (≈ 32.4 µM)
isolate (source animal id): 204 | 32 (≈ 64.8 µM)
isolate (source animal id): 205 | 32 (≈ 64.8 µM)
isolate (source animal id): 206 | 32 (≈ 64.8 µM)
isolate (source animal id): 207 | 32 (≈ 64.8 µM)
isolate (source animal id): 208 | 16 (≈ 32.4 µM)
isolate (source animal id): 209 | 16 (≈ 32.4 µM)
isolate (source animal id): 210 | 32 (≈ 64.8 µM)
isolate (source animal id): 213 | 16 (≈ 32.4 µM)
isolate (source animal id): 216 | 32 (≈ 64.8 µM)
isolate (source animal id): 223 | 16 (≈ 32.4 µM)
isolate (source animal id): 227 | 16 (≈ 32.4 µM)
isolate (source animal id): 229 | 32 (≈ 64.8 µM)
isolate (source animal id): 233 | > 32
isolate (source animal id): 234 | 32 (≈ 64.8 µM)
isolate (source animal id): 237 | 32 (≈ 64.8 µM)
isolate (source animal id): 241 | 32 (≈ 64.8 µM)
isolate (source animal id): 245 | 32 (≈ 64.8 µM)
isolate (source animal id): 247 | 32 (≈ 64.8 µM)
isolate (source animal id): 250 | 32 (≈ 64.8 µM)
isolate (source animal id): 254 | 32 (≈ 64.8 µM)
isolate (source animal id): 255 | 16 (≈ 32.4 µM)
isolate (source animal id): 258 | 32 (≈ 64.8 µM)
isolate (source animal id): 261 | 32 (≈ 64.8 µM)
isolate (source animal id): 262 | 32 (≈ 64.8 µM)
isolate (source animal id): 269 | 32 (≈ 64.8 µM)
isolate (source animal id): 270 | 32 (≈ 64.8 µM)
isolate (source animal id): 274 | 32 (≈ 64.8 µM)
isolate (source animal id): 275 | 32 (≈ 64.8 µM)
isolate (source animal id): 276 | 32 (≈ 64.8 µM)
isolate (source animal id): 277 | 32 (≈ 64.8 µM)
isolate (source animal id): 278 | 32 (≈ 64.8 µM)
isolate (source animal id): 279 | 32 (≈ 64.8 µM)
isolate (source animal id): 280 | 32 (≈ 64.8 µM)
isolate (source animal id): 284 | 32 (≈ 64.8 µM)
isolate (source animal id): 285 | 32 (≈ 64.8 µM)
isolate (source animal id): 287 | 32 (≈ 64.8 µM)
isolate (source animal id): 290 | 32 (≈ 64.8 µM)
isolate (source animal id): 294 | 32 (≈ 64.8 µM)
isolate (source animal id): 295 | > 32
isolate (source animal id): 296 | 32 (≈ 64.8 µM)
isolate (source animal id): 307 | 32 (≈ 64.8 µM)
isolate (source animal id): 310 | > 32
isolate (source animal id): 311 | > 32
isolate (source animal id): 312 | 32 (≈ 64.8 µM)
isolate (source animal id): 313 | 32 (≈ 64.8 µM)
isolate (source animal id): 315 | 32 (≈ 64.8 µM)
isolate (source animal id): 316 | 32 (≈ 64.8 µM)
